Data taken from US11214803B2, “Modulators of YAP1 expression” (Ionis Pharmaceuticals, Inc., priority 2019, dated 2022).
Strand notation (5' to 3'): a small letter for the sugar, then the base; units joined by * are phosphorothioate-linked, units joined directly phosphodiester-linked; [ ] holds rarer units or linkages, { } end groups; capitals alone tell only the bases. e = 2'-O-(2-methoxyethyl) (MOE); k = constrained ethyl (cEt); [5mC] = 5-methylcytosine; d = 2'-deoxy (DNA); m = 2'-O-methyl

System: Yap1 mRNA
Test: Antisense inhibition of human Yap1 in SNU-449 cells by modified oligonucleotides, single dose (Example 5, RTS36584)
Assay type: cell-based
How it was run: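 Free uptake, 2,000 nM, ~48 h, SNU-449 at 10,000 cells/well. Read-out: qRT-PCR (RTS36584), RIBOGREEN-normalised, expressed as % UTC. Asterisk = oligo hits amplicon region.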

[1] = Table 44 experiment, SNU-449 cells, 10,000 cells per well, free uptake, 2,000 nM, approximately 48 hours, RTS36584, Yap1 mRNA normalized to RIBOGREEN, relative to untreated control cells
[2] = Yap1 mRNA, percent of untreated control, modified oligonucleotides targeting SEQ ID NO: 1 and 2, Table 47
[3] = Table 51, Yap1 mRNA remaining as percent of untreated control (UT), SNU-449 cells, single dose
[4] = Table 43 experiment, SNU-449 cells, 10,000 cells per well, free uptake, 2,000 nM, approximately 48 hours, RTS36584, Yap1 mRNA normalized to RIBOGREEN, relative to untreated control cells
[5] = Table 45, Yap1 mRNA as percent of untreated control, SNU-449 cells, single dose
[6] = Table 40 (separate experiment), SNU-449 cells, 10,000 cells per well, free uptake, 2,000 nM oligonucleotide, approx. 48 hours, RTS36584, normalized to RIBOGREEN, Yap1 mRNA relative to untreated control
[7] = Table 39, SNU-449 cells, 10,000 cells per well, free uptake, 2,000 nM oligonucleotide, approx. 48 hours, RTS36584, normalized to RIBOGREEN, Yap1 mRNA relative to untreated control
[8] = Table 50, Yap1 mRNA remaining as percent of untreated control (UT), SNU-449 cells, single dose
[9] = Table 52, Yap1 mRNA, modified oligonucleotides targeting SEQ ID NO: 1 and 2
[10] = Table 42 (separate experiment), SNU-449 cells, 10,000 cells per well, free uptake, 2,000 nM modified oligonucleotide, approximately 48 hours, RTS36584, normalized to RIBOGREEN, Yap1 mRNA relative to untreated control cells
[11] = Table 46, Yap1 mRNA as percent of untreated control, SNU-449 cells, single dose
[12] = Table 48, Yap1 mRNA level relative to untreated control, modified oligonucleotides targeting SEQ ID NO.: 1 and 2

1198907 (kT*k[5mC]*dT*dA*dT*dA*dT*dT*dA*dG*dA*kG*dT*kA*dT*kG; antisense) [Compound 1198907]
YAP1 (% UTC) [1]: 74 % UTC

1197222 (antisense kA*kA*kG*dT*dA*dA*dG*dG*dT*dT*dT*d[5mC]*d[5mC]*k[5mC]*kA*kG) [Compound 1197222]
YAP1 (% UT) [2]: 40 % UT

1197304 (k[5mC]*kT*k[5mC]*dT*mU*dA*dT*dA*dT*dG*dG*dT*dT*kT*kT*kG; antisense) [Compound 1197304]
YAP1 (% UT) [3]: 45 % UT

1198250 (k[5mC]*kT*dT*dA*dT*dA*dT*dG*dG*dT*dT*eT*eT*eG*kT*kG; antisense) [Compound 1198250]
YAP1 (% UTC) [4]: 50 % UTC

1198952 (kT*kA*dA*dT*dA*dT*dT*dG*d[5mC]*dA*kA*kT*d[5mC]*kT*dG*kT; antisense) [Compound 1198952]
YAP1 (% UTC) [5]: 77 % UTC

1198274 (kA*kA*d[5mC]*dT*dT*dT*dA*dA*dA*dG*dT*eG*eT*eA*kT*kG; antisense) [Compound 1198274]
YAP1 (% UTC) [4]: 69 % UTC

1198750 (kG*eG*kA*dA*dG*dA*dT*d[5mC]*dT*dG*dA*dA*eA*e[5mC]*kT*k[5mC]; antisense) [Compound 1198750]
YAP1 (% UTC) [6]: 32 % UTC

1198381 (kT*dA*dG*dA*dG*dT*dA*dT*dG*dT*dG*kG*e[5mC]*kA*eA*kT; antisense) [Compound 1198381]
YAP1 (% UTC) [7]: 19 % UTC

1197283 (kG*kA*kA*dA*mU*dT*dG*dT*d[5mC]*dT*d[5mC]*dA*dT*kG*k[5mC]*k[5mC]; antisense) [Compound 1197283]
YAP1 (% UT) [8]: 29 % UT

1200809 (k[5mC]*kA*k[5mC]*dT*dG*mA*dG*dG*dT*dA*dT*dA*dA*k[5mC]*kT*kG; antisense) [Compound 1200809]
YAP1 (% UT) [9]: 69 % UT

1198601 (antisense kA*kT*kT*dG*d[5mC]*dA*dA*dT*d[5mC]*dT*dG*dT*k[5mC]*kT*kG*eA) [Compound 1198601]
YAP1 (% UT) [8]: 50 % UT

1200789 (G_{ks}G_{ks}A_{ks}A_{ds}A_{ds}U_{ys}T_{ds}G_{ds}T_{ds}^{m}C_{ds}T_{ds}^{m}C_{ds}A_{ds}T_{ks}G_{ks}^{m}C_{k}; antisense; as printed in the source, key not given here) [Compound 1200789]
YAP1 (% UT) [9]: 12 % UT

1095453 (antisense kT*kG*kA*dG*dG*dT*dA*dT*dA*dA*d[5mC]*dT*kG*kG*kG*e[5mC]) [Compound 1095453]
YAP1 (% UT) [8]: 32 % UT

1198785 (antisense kT*eT*kT*dA*dT*dG*dT*dA*dA*dT*dA*dT*eT*eG*k[5mC]*kA) [Compound 1198785]
YAP1 (% UTC) [6]: 86 % UTC

1198207 (kA*kG*dT*dA*dT*dG*dT*dG*dG*d[5mC]*dA*eA*eT*eA*kA*kT; antisense) [Compound 1198207]
YAP1 (% UTC) [10]: 91 % UTC

1198273 (k[5mC]*kT*dT*dT*dA*dA*dA*dG*dT*dG*dT*eA*eT*eG*kT*k[5mC]; antisense) [Compound 1198273]
YAP1 (% UTC) [4]: 52 % UTC

1198440 (kA*dA*dG*dT*dG*dT*dA*dT*dG*dT*d[5mC]*kA*eG*kA*eA*kG) [Compound 1198440]
YAP1 (% UTC) [6]: 5 % UTC

1198808 (antisense kG*kA*dA*dA*dT*dT*dG*dT*d[5mC]*dT*d[5mC]*kA*eT*kG*e[5mC]*k[5mC]) [Compound 1198808]
YAP1 (% UT) [11]: 40 % UT

1198900 (kA*kG*dA*dG*dT*dA*dT*dG*dT*dG*dG*k[5mC]*dA*kA*dT*kA; antisense) [Compound 1198900]
YAP1 (% UTC) [1]: 11 % UTC

1198453 (kG*dA*d[5mC]*dT*dA*dA*dG*dT*dA*dA*dG*kG*eT*kT*eT*k[5mC]; antisense) [Compound 1198453]
YAP1 (% UTC) [7]: 48 % UTC

1198945 (kA*k[5mC]*dT*d[5mC]*dT*dT*dA*dT*dA*dT*dG*kG*dT*kT*dT*kT; antisense) [Compound 1198945]
YAP1 (% UTC) [5]: 48 % UTC

1198373 (kA*dA*dA*dT*dT*dG*dT*d[5mC]*dT*d[5mC]*dA*kT*eG*k[5mC]*e[5mC]*kT; antisense) [Compound 1198373]
YAP1 (% UTC) [7]: 40 % UTC

1097247 (antisense kT*kA*kA*dA*dG*dT*dG*dT*dA*dT*dG*dT*d[5mC]*kA*kG*kA) [Compound 1097247]
YAP1 (% UT) [12]: 9 % UT

1197205 (antisense kG*kA*k[5mC]*dA*dA*d[5mC]*dT*d[5mC]*dT*dT*dA*dT*dA*kT*kG*kG) [Compound 1197205]
YAP1 (% UT) [12]: 67 % UT

1198248 (kA*kT*dA*dT*dG*dG*dT*dT*dT*dT*dG*eT*eG*eT*kG*kT; antisense) [Compound 1198248]
YAP1 (% UTC) [4]: 64 % UTC

1198400 (kA*dA*dG*d[5mC]*dA*d[5mC]*dT*dT*dT*dT*dA*k[5mC]*eA*kT*eT*kA; antisense) [Compound 1198400]
YAP1 (% UTC) [7]: 62 % UTC

1198726 (kT*eT*kA*dG*dA*dG*dT*dA*dT*dG*dT*dG*eG*e[5mC]*kA*kA; antisense) [Compound 1198726]
YAP1 (% UTC) [6]: 28 % UTC

1198535 (kA*kA*dG*dT*dA*dA*dG*dG*dT*dT*dT*e[5mC]*k[5mC]*e[5mC]*kA*eG; antisense) [Compound 1198535]
YAP1 (% UTC) [1]: 35 % UTC

1197310 (kT*kA*kT*dG*mU*dA*dA*dT*dA*dT*dT*dG*d[5mC]*kA*kA*kT; antisense) [Compound 1197310]
YAP1 (% UT) [3]: 109 % UT

1198519 (kG*kT*dA*dA*dT*dA*dT*dT*dG*d[5mC]*dA*eA*kT*e[5mC]*kT*eG; antisense) [Compound 1198519]
YAP1 (% UTC) [1]: 20 % UTC

1198887 (kG*kA*d[5mC]*dT*dA*dA*dG*dT*dA*dA*dG*kG*eT*kT*eT*k[5mC]; antisense) [Compound 1198887]
YAP1 (% UT) [11]: 71 % UT

1198902 (kT*kT*dA*dG*dA*dG*dT*dA*dT*dG*dT*kG*dG*k[5mC]*dA*kA; antisense) [Compound 1198902]
YAP1 (% UTC) [1]: 13 % UTC

1200826 (kG*kT*kG*d[5mC]*dT*mU*dT*dG*dG*dA*dA*dG*dA*kT*k[5mC]*kT; antisense) [Compound 1200826]
YAP1 (% UT) [9]: 26 % UT

1197285 (kA*kG*kA*dG*mU*dA*dT*dG*dT*dG*dG*d[5mC]*dA*kA*kT*kA; antisense) [Compound 1197285]
YAP1 (% UT) [8]: 28 % UT

1198854 (kA*kT*dA*dT*dG*dG*dT*dT*dT*dT*dG*kT*eG*kT*eG*kT; antisense) [Compound 1198854]
YAP1 (% UT) [11]: 56 % UT

1198657 (kA*kG*d[5mC]*dA*d[5mC]*dT*dT*dT*dT*dA*d[5mC]*dA*kT*eT*kA*eG; antisense) [Compound 1198657]
YAP1 (% UTC) (Table 41, SNU-449 cells, 10,000 cells per well, free uptake, 2,000 nM modified oligonucleotide, approximately 48 hours, RTS36584, normalized to RIBOGREEN, Yap1 mRNA relative to untreated control cells): 95 % UTC

1198452 (kA*d[5mC]*dT*dA*dA*dG*dT*dA*dA*dG*dG*kT*eT*kT*e[5mC]*k[5mC]; antisense) [Compound 1198452]
YAP1 (% UTC) [7]: 38 % UTC

1198585 (antisense kT*kT*kT*dA*dG*dG*dA*dT*dG*d[5mC]*dA*dT*kG*kG*kT*eT) [Compound 1198585]
YAP1 (% UT) [8]: 22 % UT

1197227 (antisense kT*kT*kA*dG*dA*d[5mC]*dT*dA*dA*dG*dT*dA*dA*kG*kG*kT) [Compound 1197227]
YAP1 (% UT) [2]: 64 % UT

1095565 (antisense kT*kG*kA*dG*dG*dT*dA*dT*dA*dA*d[5mC]*dT*kG*eG*kG*e[5mC]) [Compound 1095565]
YAP1 (% UT) (Table 49, Yap1 mRNA level relative to untreated control, modified oligonucleotides targeting SEQ ID NO.: 1 and 2): 25 % UT

1198246 (kT*k[5mC]*dA*dG*dA*dT*dT*dT*dA*dG*dG*eA*eT*eG*k[5mC]*kA; antisense) [Compound 1198246]
YAP1 (% UTC) [4]: 30 % UTC

1198863 (kA*kT*dT*dG*d[5mC]*dA*dA*dT*d[5mC]*dT*dG*kT*e[5mC]*kT*eG*kA; antisense) [Compound 1198863]
YAP1 (% UT) [11]: 65 % UT

1197229 (antisense kG*kG*kA*dA*mA*dT*dT*dG*dT*d[5mC]*dT*d[5mC]*dA*kT*kG*k[5mC]) [Compound 1197229]
YAP1 (% UT) [8]: 21 % UT

1197305 (kA*k[5mC]*kT*d[5mC]*mU*dT*dA*dT*dA*dT*dG*dG*dT*kT*kT*kT; antisense) [Compound 1197305]
YAP1 (% UT) [3]: 30 % UT

1198525 (kA*kG*dT*dG*dT*dA*dT*dG*dT*d[5mC]*dA*eG*kA*eA*kG*eA; antisense) [Compound 1198525]
YAP1 (% UTC) [1]: 2 % UTC

1198648 (kA*kG*dG*dT*dA*dT*dA*dA*d[5mC]*dT*dG*dG*kG*e[5mC]*kA*eA) [Compound 1198648]
YAP1 (% UTC) [10]: 43 % UTC

1198936 (kA*kG*dA*dT*dT*dT*dA*dG*dG*dA*dT*kG*d[5mC]*kA*dT*kG; antisense) [Compound 1198936]
YAP1 (% UTC) [5]: 38 % UTC

1198441 (kA*dA*dA*dG*dT*dG*dT*dA*dT*dG*dT*k[5mC]*eA*kG*eA*kA; antisense) [Compound 1198441]
YAP1 (% UTC) [6]: 19 % UTC
